# Data published in ChEMBL document CHEMBL1201862, “PubChem BioAssay data set” (2004).
#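 A five-concentration, 48-hour dose response in 96-well plates underlies each endpoint, interpolated linearly between surrounding concentrations. The concentration for 50% growth inhibition is given as GI50.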 Activity calls are given as the source filed them. No stated cut-off is given here; in the data, active = GI50 up to about 1.1 µM and inactive = higher.
# Columns and labels:
# Assay in all cases: NCI tumour cell line growth inhibition, 48 h
# DMS-273 = test system: DMS-273
# DMS-114 = test system: DMS-114
# RXF 631 = test system: RXF 631
# DLD-1 = test system: DLD-1
# KM-20L2 = test system: KM-20L2
# XF498 = test system: XF498
# LXFL 529 = test system: LXFL 529
# HOP-18 = test system: HOP-18
# SNB-78 = test system: SNB-78
SMILES,GI50 (DMS-273),GI50 (DMS-114),GI50 (RXF 631),GI50 (DLD-1),GI50 (KM-20L2),GI50 (XF498),GI50 (LXFL 529),GI50 (HOP-18),GI50 (SNB-78)
COc1ccccc1NC(=O)C1=C(C)NC(C)=C(C(=O)Nc2ccccc2OC)C1c1ccccc1Cl,> 100 µM (inactive),45.5 µM (inactive),> 100 µM (inactive),> 100 µM (inactive),56.5 µM (inactive),37.7 µM (inactive),> 100 µM (inactive),> 100 µM (inactive),
CC(=O)OC12COC1CC(O)C1(C)C(=O)C(O)C3=C(C)C(O)CC(O)(C(OC(=O)c4ccccc4)C21)C3(C)C (stereo not drawn),0.731 µM (active),6.97 µM (inactive),,,1.41 µM (inactive),2.36 µM (inactive),,,> 100 µM (inactive)
O=C1C=C(c2c(O)ccc3ccccc23)c2ccccc2C1=O,3.46 µM (inactive),2.04 µM (inactive),6.56 µM (inactive),3.76 µM (inactive),15.4 µM (inactive),,1.59 µM (inactive),8.81 µM (inactive),2.26 µM (inactive)
CCN(CC)CCCC(C)Nc1c2ccc(Cl)cc2nc2cc(Cl)ccc12 (stereo not drawn),3.32 µM (inactive),4.41 µM (inactive),,2.94 µM (inactive),3.42 µM (inactive),4.99 µM (inactive),,5.42 µM (inactive),9.82 µM (inactive)
CCOC(=O)C1=C(O)C(=O)c2ccccc2C1=O,> 100 µM (inactive),> 100 µM (inactive),,> 100 µM (inactive),,> 100 µM (inactive),,> 100 µM (inactive),> 100 µM (inactive)
Clc1cccc(N2CCN(CCCN3CCc4c([nH]c5ccccc45)C3c3cccnc3)CC2)c1 (stereo not drawn),5.98 µM (inactive),5.52 µM (inactive),3.63 µM (inactive),11.2 µM (inactive),4.28 µM (inactive),4.58 µM (inactive),6.52 µM (inactive),14.3 µM (inactive),5.69 µM (inactive)
O=C1C(c2ccccc2)=C(c2ccccc2)C(c2ccccc2)/C1=C1\C(=O)C(c2ccccc2)=C(c2ccccc2)C1c1ccccc1 (stereo not drawn),> 100 µM (inactive),> 100 µM (inactive),,> 100 µM (inactive),> 100 µM (inactive),,> 100 µM (inactive),> 100 µM (inactive),> 100 µM (inactive)
C/C(=N/NS(=O)(=O)c1c(C)cc(C)cc1C)c1cccc[n+]1[O-],> 100 µM (inactive),> 100 µM (inactive),,> 100 µM (inactive),> 100 µM (inactive),> 100 µM (inactive),> 100 µM (inactive),> 100 µM (inactive),> 100 µM (inactive)
COc1ccc(/N=N/C(C(=O)c2ccccc2)C(=O)c2ccccc2)cc1,16.1 µM (inactive),19.4 µM (inactive),31.4 µM (inactive),23.9 µM (inactive),27.2 µM (inactive),18.2 µM (inactive),24.8 µM (inactive),,
COC(=O)/C(=N\Nc1nnc(C)n1N)C(C#N)c1ccccc1 (stereo not drawn),> 100 µM (inactive),21.5 µM (inactive),83.6 µM (inactive),31.1 µM (inactive),> 100 µM (inactive),> 100 µM (inactive),64.9 µM (inactive),7.05 µM (inactive),> 100 µM (inactive)
O=C1C=CC(=O)C12CCc1ccccc12,> 100 µM (inactive),> 100 µM (inactive),> 100 µM (inactive),> 63.8 µM (inactive),> 100 µM (inactive),> 100 µM (inactive),> 100 µM (inactive),> 33.2 µM (inactive),> 100 µM (inactive)
Clc1ccc(-c2c(C3=NCCCN3)nnn2-c2ccccc2)cc1,> 100 µM (inactive),47.2 µM (inactive),75.3 µM (inactive),75 µM (inactive),33.9 µM (inactive),> 100 µM (inactive),> 100 µM (inactive),> 100 µM (inactive),> 100 µM (inactive)
Cc1ccc(C(=O)N2c3ccccc3N(C)n3cccc3C2CC(=O)O)cc1 (stereo not drawn),> 100 µM (inactive),> 100 µM (inactive),,> 100 µM (inactive),> 100 µM (inactive),> 100 µM (inactive),> 100 µM (inactive),,> 100 µM (inactive)
C[C@]12CCC(=O)C(O)=C1CCC2=O,> 100 µM (inactive),,,> 100 µM (inactive),> 100 µM (inactive),,> 100 µM (inactive),> 100 µM (inactive),> 100 µM (inactive)
CC(=O)OCCOCNC(=S)N/N=C/c1ccc([N+](=O)[O-])s1,28.1 µM (inactive),7.85 µM (inactive),,31.1 µM (inactive),32.4 µM (inactive),> 100 µM (inactive),73.3 µM (inactive),> 100 µM (inactive),> 100 µM (inactive)
CCOC(=O)C1(Br)S(=O)(=O)OCCOS1(=O)=O,> 100 µM (inactive),> 100 µM (inactive),,> 100 µM (inactive),> 100 µM (inactive),> 100 µM (inactive),,,> 100 µM (inactive)
CCOC(=O)C1=C(Nc2ccc(Cl)cc2Cl)OCC1=O,> 100 µM (inactive),,> 100 µM (inactive),> 100 µM (inactive),> 100 µM (inactive),> 100 µM (inactive),> 100 µM (inactive),,> 100 µM (inactive)
CCOC(=N)CC(=O)Nc1cccc(C)c1C,> 100 µM (inactive),,> 100 µM (inactive),> 100 µM (inactive),> 100 µM (inactive),> 100 µM (inactive),> 100 µM (inactive),,40.3 µM (inactive)
Cc1cccc(C)c1N1C(=O)C(=O)C(c2nc3ccccc3s2)/C(=N/NC(=O)c2ccccc2O)C1=O (stereo not drawn),4.74 µM (inactive),11.6 µM (inactive),24.5 µM (inactive),22.8 µM (inactive),32.6 µM (inactive),12.4 µM (inactive),10.2 µM (inactive),21.7 µM (inactive),5.45 µM (inactive)
CC1CCCC2(O1)OC1CC(=O)OC1C1=C2C(=O)c2ccccc2C1=O (stereo not drawn),1.8 µM (inactive),1.75 µM (inactive),,,3.98 µM (inactive),2.72 µM (inactive),1.4 µM (inactive),,2.05 µM (inactive)
